Measured values reported in paper PMC12022980, “Rational Design of PROTAC Linkers Featuring Ferrocene as a Molecular Hinge to Enable Dynamic Conformational Changes” (Journal of the American Chemical Society, 2025).

Target: VCB protein complex (VHL:ElonginC:ElonginB) (Homo sapiens, UniProt P40337)
Test: Native gel electrophoresis assay for ternary complex formation
Assay type: binding
Details: VCB incubated with PROTAC 30 min, room temperature
Text: To monitor ternary complex formation mediated by FerroTACs, we leveraged native gel electrophoresis assay, a methodology recently validated to assess VHL dimerization by homo-PROTACs.[41] This in vitro approach serves as a rapid semiqualitative tool to evaluate homo-FerroTAC activity in promoting stable ternary protein complexes. The technique is user-friendly, suitable for higher throughput, and requires lower protein quantities compared to other biophysical methods. The recombinant VCB protein complex (VHL:ElonginC:ElonginB) was incubated with the corresponding Homo-PROTACs (CM11, AS1, cisAS1, AS2) for 30 min at room temperature, followed by non-denaturing gel electrophoresis. Ternary complex formation was indicated by an upward shift in the protein band on the gel, in agreement with the higher molecular weight of the complex. […]
antibody (LI-COR #926-32213, 1:5,000) or IRDye 800CW donkey anti-mouse secondary antibody, (Li-COR […]
room temperature and protected from light. Thereafter, the membranes were washed with TBS-T three times for 10 min, and protein bands were acquired using a ChemiDoc MP imaging system (Bio-Rad). Band quantification was performed using Image Lab software and reported as ratio of each protein band relative to the lane’s loading control. The values obtained were then normalised to vehicle control.
Native Gel Electrophoresis Assay
Gel casting. […]

Sequence of VCB protein complex (VHL:ElonginC:ElonginB) (P40337 54-213 limits assumed, species assumed): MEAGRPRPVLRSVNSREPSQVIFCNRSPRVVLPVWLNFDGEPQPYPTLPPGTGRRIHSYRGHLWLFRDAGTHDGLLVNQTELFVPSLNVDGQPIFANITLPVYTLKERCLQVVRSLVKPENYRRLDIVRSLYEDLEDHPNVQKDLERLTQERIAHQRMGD
Sequence of VCB protein complex (VHL:ElonginC:ElonginB) (Q15369 17-112 partner limits assumed, species assumed): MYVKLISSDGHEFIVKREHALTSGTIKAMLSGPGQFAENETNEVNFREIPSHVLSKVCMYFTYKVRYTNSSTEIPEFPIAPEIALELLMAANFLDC
Sequence of VCB protein complex (VHL:ElonginC:ElonginB) (Q15370 1-104 partner limits assumed, species assumed): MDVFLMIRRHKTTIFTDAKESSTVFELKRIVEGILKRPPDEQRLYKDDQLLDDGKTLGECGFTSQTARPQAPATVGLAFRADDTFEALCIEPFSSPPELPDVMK

## Cc1ncsc1-c1ccc(CNC(=O)[C@@H]2C[C@@H](O)CN2C(=O)[C@@H](NC(=O)COCCOCCOCCOCCOCCOCC(=O)N[C@H](C(=O)N2C[C@H](O)C[C@H]2C(=O)NCc2ccc(-c3scnc3C)cc2)C(C)(C)C)C(C)(C)C)cc1 [CM11]
  ternary complex formation, native gel (in words): induced formation of an up-shifted protein band
